Data published in ChEMBL document CHEMBL1133788, “Structure--activity relationships of side-chain modified didemnins” (Bioorg Med Chem Lett, 2001).

Key:
Type in all cases: functional
[1] = Lethal concentration for inhibitory activity evaluated in NCI-60 tumor cell screen; settings: human
[2] = Growth inhibitory activity evaluated in NCI-60 tumor cell screen; settings: Homo sapiens
[3] = Total Growth inhibitory activity evaluated in NCI-60 tumor cell screen; settings: Homo sapiens

CC[C@H](C)[C@H]1NC(=O)[C@@H](NC(=O)[C@@H](CC(C)C)N(C)C(=O)CNC(=O)Cc2cc(=O)oc3cc(N(C)C)ccc23)[C@@H](C)OC(=O)[C@H](Cc2ccc(OC)cc2)N(C)C(=O)[C@@H]2CCCN2C(=O)[C@H](CC(C)C)NC(=O)[C@@H](C)C(=O)[C@H](C(C)C)OC(=O)C[C@@H]1O
LC50 [1]: 7.2 µM
GI50 [2]: 11 nM
TGI [3]: 20.5 nM

CC[C@H](C)[C@H]1NC(=O)[C@@H](NC(=O)[C@@H](CC(C)C)N(C)C[C@@H]2CCCN2C(=O)[C@@H](C)O)[C@@H](C)OC(=O)[C@H](Cc2ccc(OC)cc2)N(C)C(=O)[C@@H]2CCCN2C(=O)[C@H](CC(C)C)NC(=O)[C@@H](C)C(=O)[C@H](C(C)C)OC(=O)C[C@@H]1O
LC50 [1]: 3 µM
GI50 [2]: 4 nM
TGI [3]: 76 nM

CC[C@H](C)[C@H]1NC(=O)[C@@H](NC(=O)[C@@H](CC(C)C)N(C)C(=O)[C@H]2C=CCN2)[C@@H](C)OC(=O)[C@H](Cc2ccc(OC)cc2)N(C)C(=O)[C@@H]2CCCN2C(=O)[C@H](CC(C)C)NC(=O)[C@@H](C)C(=O)[C@H](C(C)C)OC(=O)C[C@@H]1O
LC50 [1]: 7 µM
GI50 [2]: 3 nM
TGI [3]: 39 nM

CC[C@H](C)[C@H]1NC(=O)[C@@H](NC(=O)[C@@H](CC(C)C)N(C)C(=O)[C@@H]2C=CCN2C(=O)[C@@H](C)O)[C@@H](C)OC(=O)[C@H](Cc2ccc(OC)cc2)N(C)C(=O)[C@@H]2CCCN2C(=O)[C@H](CC(C)C)NC(=O)[C@@H](C)C(=O)[C@H](C(C)C)OC(=O)C[C@@H]1O
LC50 [1]: 0.083 µM
GI50 [2]: 2.8 nM
TGI [3]: 20 nM

CC[C@H](C)[C@H]1NC(=O)[C@@H](NC(=O)[C@@H](CC(C)C)N(C)C(=O)C2CCCN2)[C@@H](C)OC(=O)[C@H](Cc2ccc(OC)cc2)N(C)C(=O)[C@@H]2CCCN2C(=O)[C@H](CC(C)C)NC(=O)[C@@H](C)C(=O)[C@H](C(C)C)OC(=O)C[C@@H]1O (stereo not given in full)
LC50 [1]: 0.21 µM
GI50 [2]: 0.62 nM
TGI [3]: 12 nM
